For assay [1], the system named is platelets. The assay is described as follows: Pressure increase in glass-surface microchip 2, citric acid-anticoagulated blood with ADP (Examples 8 to 10). The format is ex vivo. From the text:
The first substrate 200 shown in FIG. 3A and the second substrate 210 shown in FIG. 3B were laminated with and bonded to each other, to provide the microchip 2 shown in FIG. 3C. In terms of the substrate 200, a substrate made of PDMS (Fluidware) was used, and the depth of all the channels was 120 μm; the channel width was 1 mm; the length of the comb was 1 mm; the width of the comb was 50 μm; and the groove width was 50 μm. In terms of the substrate 210, a slide glass was used, and penetrating holes corresponding to the inlet and the outlet were provided as in the substrate 110, but, unlike the substrate 110, collagen was not applied since the glass plays a role as a platelet-adhesive surface. […] The mineral oil was injected from the pump 209 into the microchip 2 at a flow rate of 20 μl/min., and the inflow pressure of the mineral oil was measured by a pressure sensor which is not shown. Pressure changes were measured by carrying out an experiment which was the same as that in Example 8 except that ADP (manufactured by Wako Pure Chemical Industries, Ltd.) was further added to the blood anticoagulated with citric acid in the reservoir 207 to a final concentration of […]. Pressure changes were measured by carrying out an experiment which was the same as that in Example 9 except that blood collected 3 hours after dosing with 75 mg clopidogrel (Sanofi-aventis) was used.

In assay [2] the test system is platelets. The assay is described as follows: Camera images of platelet adherence in collagen-coated microchip 1 (Example 7). The format is cell-based. The note with it: ADP 0.025, 0.05, 0.1 μM in citric acid-treated blood, 8 μl/min, image after 1 minute. As for the experimental part:
(§1) In the first substrate 100, the length, depth and width of the channel (capillary) 101 were 20 mm, 50 μm and 2 mm, respectively.
A pump 109 was connected to the reservoir 107 via a tube, and the pressure exerted on the pump was measured with a pressure sensor which is not shown. In the reservoir 107, a cylindrical stirring bar 108 having a diameter of 2 mm and a length of 5 mm, which was prepared by coating an iron cylinder with PMEA, was contained. The stirring bar 108 was set such that it can be rotated at 60 to 180 rpm by the magnetic force of a stirrer 113 placed under the heater 115 which was heated to 37° C. An outlet duct 112 was connected to the outlet such that the blood after the analysis can be discharged. A camera 111 to which an image analyzer 114 was connected was placed above the channel dividing section 102 of the microchip 1, thereby allowing observation of the state of platelet activation in the channel dividing section 102.
An experiment was carried out using the microchip 1 and the system A in Example 1 for diagnosis by images. The pump 109 was filled with mineral oil, and the reservoir 107 was filled with blood anticoagulated with citric acid. The mineral oil was sent to the reservoir 107 using the pump 109 at a flow rate of 8 μl/min. to allow the blood to flow into the microchip 1. […]

Assay [3] concerns platelets. The assay is described as follows: Pressure increase in collagen-coated microchip 1, citric acid-treated blood with arachidonic acid or collagen (Examples 16 to 18). The assay is classed as ex vivo. The conditions noted are these: subject G. As for the experimental part: as §1
The experiments a to f in Example 16 were carried out for the subject G 6 hours after dosing with 100 mg of aspirin.
Using blood of the subject G collected 6 hours after dosing with 100 mg of aspirin, experiments were carried out in the same manner as in Examples 16d to f except that the collagen to be added was increased to 12 μl or 18 μl.

The subject of assay [4] is platelets. The note with it: subject D, blood collected 6 hours after oral 100 mg clopidogrel, 6 μl of 100 μM ADP in about 600 μl blood, 20 μl/min.
Procedure: Two transparent substrates, that is, the first substrate 100 shown in FIG. 1(A) and the second substrate 110 shown in FIG. 1(B) (injection-molded products manufactured by Richell Corporation) were prepared. The side of the first substrate 100 wherein a groove corresponding to a capillary 101 opens and the side of the second substrate 110 having a platelet-adhesive surface 106 were bonded together such that these face to each other using a silane coupling agent and thermocompression bonding, to provide the microchip 1 shown in FIG. 1(C). In the first substrate 100, the length, depth and width of the channel (capillary) 101 were 20 mm, 50 μm and 2 mm, respectively. In terms of the channel dividing section 102, dividing walls 103 each having a length of 1.5 mm, width of 50 μm and height of 50 μm were placed at equal intervals of 50 μm, and this part was used as the channel dividing section. In the second substrate, each of the holes corresponding to the inlet and the outlet was a penetrating hole having a circular cross section and an inner diameter of 2 mm and a depth of 2 mm. At the position on the second substrate 110 which is overlapped with the channel dividing section 102 of the first substrate 100, about 10 μl of 3 mg/ml collagen type I (manufactured by Nitta Gelatin Inc.) was applied and dried under vacuum to provide a platelet-adhesive surface 106. […]
For assay [5], the system named is platelets. As to the kind of experiment: Pressure increase in collagen-coated microchip 1, hirudin-anticoagulated blood with agent added (Examples 19 to 22). The format is cell-based. The conditions noted are these: flow rate 7 μl/min, ReoPro 0.4 or 0.8 μg/ml. As for the experimental part: as §1
(a) Blood was collected from the subject D using a hirudin blood collection tube (Multiplate Services GmbH), and about 600 μl of the blood anticoagulated with hirudin was filled in the reservoir 207. The pump 209 was filled with mineral oil and connected to the reservoir 207, whose tip was further connected to the inlet 104 in the microchip 1.

With `Nc1ncnc2c1ncn2[C@@H]1O[C@H](COP(=O)(O)OP(=O)(O)O)[C@@H](O)[C@H]1O` [ADP, adenosine diphosphate], the “pressure increase in the pump on addition of ADP” value in the assay on platelets [1] (blood anticoagulated with citric acid, ADP final concentration 2 nM, flow rate 20 μl/min) is reported as “caused pressure increase”. Also, the “amount of platelets adhered to the comb portion” value in the assay with platelets [2] was “increase in the amount of platelets adhered to the comb portion, which occurred in an ADP concentration-dependent manner”. Turning to `CC(=O)Oc1ccccc1C(=O)O` [aspirin], the “pressure increase of blood collected after aspirin with increased collagen” value with platelets [3] (6 hours after 100 mg aspirin, collagen increased to 12 μl or 18 μl, 20 μl/min (FIG. 19)) is “can also be made to cause pressure increase by increasing the collagen to be added”. Also, the “anti-platelet effect of aspirin by pressure increase” value in the assay on platelets [3] (6 hours after dosing with 100 mg aspirin, arachidonic acid or collagen added, 20, 10, 5 μl/min) is “anti-platelet effect of aspirin can be analyzed”.

In the case of `COC(=O)[C@H](c1ccccc1Cl)N1CCc2sccc2C1` [clopidogrel], the “ADP-induced pressure increase after administration of clopidogrel” value in the assay on platelets [1] (blood collected 3 hours after dosing with 75 mg clopidogrel, ADP 2 nM, 20 μl/min) is reported as “the increase was suppressed”. Besides, in the assay with platelets [4], the “pressure increase after administration of clopidogrel” value is “pressure increase delayed”.

B1: ReoPro: ReoPro (Eli lilly), an antibody against the receptor GPIIb/IIIa on the platelet membrane (antibody, chains of the INN, looked up, V domains shown)
VH: EVQLQQSGTVLARPGASVKMSCEASGYTFTNYWMHWVKQRPGQGLEWIGAIYPGNSDTSYIQKFKGKAKLTAVTSTTSVYMELSSLTNEDSAVYYCTLYDGYYVFAYWGQGTLVTVSA
VL: EIVLTQSPVTLSVTPGDSVSLSCRASRDISNNLHWFQQTSHESPRLLIKYASQSMSGIPSRFSGSGSGTDFTLSINSVETEDFGMYFCQQTNSWPYTFGGGTKLEIK
modifications: Fab
notes: ReoPro (Eli lilly), an antibody against the receptor GPIIb/IIIa on the platelet membrane
Take B1: the “anti-platelet effect under low shear stress” value with platelets [5] was “rather strong anti-platelet effect”.

Values taken from patent US20160103142A1, “Blood-Platelet Test Method and Blood-Platelet Test Device” (FUJIMORI KOGYO CO., LTD., priority 2008, published 2016).
